Legend:
Format in all cases: in vivo
Stellaria media [1] = experiment: Test Example 4: herbicidal effect by soil treatment (symbol P); settings: application herbicide amount 320 g/ha
Summary of the method: (§1)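 Seeds were sown in sterilized diluvial soil, covered with about 1.5 cm of soil, and the soil surface was sprayed with a water-diluted emulsion of the compound at a predetermined rate. Plants grew in a greenhouse at 25° C. to 30° C.; effects were scored visually 3 weeks after application.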

beet = experiment: Test Example 5: effect on crop by foliage application, plastic box (symbol f); settings: 320 g/ha, 3 weeks after application
Summary of the method: (§2)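 Crop seed is sown alongside grass and broadleaf weed species in spots in sterilized diluvial soil, then covered to a depth of about 1.5 cm. Plants grow in a greenhouse kept at 25° C. to 30° C.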

[2] = system: Echinochloa crus-galli var. crus-galli; experiment: Test Example 3: herbicidal effect by foliage application, Wagner pot (symbol H); settings: application herbicide amount 320 g/ha
Summary of the method: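 Alluvial soil was flooded to a depth of 0.1–0.5 cm, seeded with the weeds and rice, and kept in a greenhouse at 25–30 °C. After 14 days of growth, the foliage received a small-sprayer application of emulsion diluted to the intended rate; injury was rated at 3 weeks.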

[3] = system: Echinochloa oryzacola Vasing.; experiment: Test Example 1: herbicidal activity, application before weed generation in submerged conditions (symbol A); settings: application herbicide amount 320 g/ha
Summary of the method: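 Steps: alluvial soil flooded to 4 cm; weed seeds sown together; rice seedlings (2.5 leaf) transplanted; diluted emulsion applied to water surface the same day as sowing; plants grown at 25–30 °C in greenhouse; herbicidal effect rated on a 0–5 scale at 3 weeks.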

Lolium multiflorum Lam. = experiment: Test Example 4: herbicidal effect by soil treatment (symbol K); settings: application herbicide amount 320 g/ha
Summary of the method: as §1

Setaria viridis [4] = experiment: Test Example 5: herbicidal effect by foliage application, plastic box (symbol G); settings: 320 g/ha, 3 weeks after application
Summary of the method: (§3)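 Herbicide, formulated as an emulsion and diluted in water, is sprayed onto the aerial parts of 14-day seedlings. These were grown at 25° C. to 30° C. in sterilized diluvial soil; effects are graded after 3 weeks.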

Amaranthus retroflexus [5] = experiment: Test Example 4: herbicidal effect by soil treatment (symbol N); settings: application herbicide amount 320 g/ha
Summary of the method: as §1

wheat [6] = experiment: Test Example 4: effect on crop by soil treatment (symbol e); settings: application herbicide amount 320 g/ha
Summary of the method: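 Crop seed is sown in spots together with several weed species in a box of sterilized diluvial soil. It is covered by about 1.5 cm of soil and kept in a greenhouse held between 25° C. and 30° C.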

Abutilon theophrasti = experiment: Test Example 5: herbicidal effect by foliage application, plastic box (symbol M); settings: 320 g/ha, 3 weeks after application
Summary of the method: as §3

Amaranthus retroflexus [7] = experiment: Test Example 5: herbicidal effect by foliage application, plastic box (symbol N); settings: 320 g/ha, 3 weeks after application
Summary of the method: as §3

Stellaria media [8] = experiment: Test Example 5: herbicidal effect by foliage application, plastic box (symbol P); settings: 320 g/ha, 3 weeks after application
Summary of the method: as §3

transplanted rice plant = experiment: Test Example 1: effect on crop, application before weed generation in submerged conditions (symbol a); settings: application herbicide amount 320 g/ha
Summary of the method: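 Rice at 2.5 leaf stage transplanted into submerged soil (4 cm depth) sown with three weed species; herbicide applied before weed emergence.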

wheat [9] = experiment: Test Example 5: effect on crop by foliage application, plastic box (symbol e); settings: 320 g/ha, 3 weeks after application
Summary of the method: as §2

Setaria viridis [10] = experiment: Test Example 4: herbicidal effect by soil treatment (symbol G); settings: application herbicide amount 320 g/ha
Summary of the method: as §1

Avena fatua = experiment: Test Example 5: herbicidal effect by foliage application, plastic box (symbol I); settings: 320 g/ha, 3 weeks after application
Summary of the method: as §3

Structure (SMILES)	P: Stellaria media, herbicidal effect grade (Stellaria media [1])	f: beet, effect on crop grade (beet)	herbicidal effect on H (Echinochloa crus-galli var. crus-galli), grade 0-5 [2]	Herbicidal effect grade, A: Echinochloa oryzacola Vasing. [3]	K: Lolium multiflorum Lam., herbicidal effect grade (Lolium multiflorum Lam.)	G: Setaria viridis, herbicidal effect grade (Setaria viridis [4])	N: Amaranthus retroflexus, herbicidal effect grade (Amaranthus retroflexus [5])	e: wheat, effect on crop grade (wheat [6])	M: Abutilon theophrasti, herbicidal effect grade (Abutilon theophrasti)	N: Amaranthus retroflexus, herbicidal effect grade (Amaranthus retroflexus [7])	P: Stellaria media, herbicidal effect grade (Stellaria media [8])	Effect grade on crop, a: transplanted rice plant (transplanted rice plant)	e: wheat, effect on crop grade (wheat [9])	G: Setaria viridis, herbicidal effect grade (Setaria viridis [10])	I: Avena fatua, herbicidal effect grade (Avena fatua)
CON=C(C)C1CC(O)=C(c2c(C)cc(C)cc2C)C1=O (mixture of isomers) [3-002]	0 (Herbicidal ratio of 5% or lower (almost no effect))	0 (Herbicidal ratio of 5% or lower (almost no effect))	0 (Herbicidal ratio of 5% or lower (almost no effect))	0 (Herbicidal ratio of 5% or lower (almost no effect))	0 (Herbicidal ratio of 5% or lower (almost no effect))	2 (Herbicidal ratio of 20% or higher and lower than 40%)	0 (Herbicidal ratio of 5% or lower (almost no effect))	0 (Herbicidal ratio of 5% or lower (almost no effect))	0 (Herbicidal ratio of 5% or lower (almost no effect))	0 (Herbicidal ratio of 5% or lower (almost no effect))	0 (Herbicidal ratio of 5% or lower (almost no effect))	0 (Herbicidal ratio of 5% or lower (almost no effect))	0 (Herbicidal ratio of 5% or lower (almost no effect))	0 (Herbicidal ratio of 5% or lower (almost no effect))	0 (Herbicidal ratio of 5% or lower (almost no effect))
CON=C(C)CC1CC(O)=C(c2c(C)cc(C#CCO)cc2C)C1=O (mixture of isomers) [6-025]	0 (Herbicidal ratio of 5% or lower (almost no effect))	0 (Herbicidal ratio of 5% or lower (almost no effect))	5 (Herbicidal ratio of 90% or more (almost completely withered))	2 (Herbicidal ratio of 20% or higher and lower than 40%)	5 (Herbicidal ratio of 90% or more (almost completely withered))	5 (Herbicidal ratio of 90% or more (almost completely withered))	0 (Herbicidal ratio of 5% or lower (almost no effect))	0 (Herbicidal ratio of 5% or lower (almost no effect))	0 (Herbicidal ratio of 5% or lower (almost no effect))	0 (Herbicidal ratio of 5% or lower (almost no effect))	0 (Herbicidal ratio of 5% or lower (almost no effect))	3 (Herbicidal ratio of 40% or higher and lower than 70%)	1 (Herbicidal ratio of 5% or higher and lower than 20%)	4 (Herbicidal ratio of 70% or higher and lower than 90%)	5 (Herbicidal ratio of 90% or more (almost completely withered))
CCc1cc(C)cc(C)c1C1=C(O)CC(CC(C)=NOC)C1=O (centres unmarked) [6-007]	0 (Herbicidal ratio of 5% or lower (almost no effect))	0 (Herbicidal ratio of 5% or lower (almost no effect))	5 (Herbicidal ratio of 90% or more (almost completely withered))	5 (Herbicidal ratio of 90% or more (almost completely withered))	5 (Herbicidal ratio of 90% or more (almost completely withered))	5 (Herbicidal ratio of 90% or more (almost completely withered))	3 (Herbicidal ratio of 40% or higher and lower than 70%)	5 (Herbicidal ratio of 90% or more (almost completely withered))	1 (Herbicidal ratio of 5% or higher and lower than 20%)	0 (Herbicidal ratio of 5% or lower (almost no effect))		5 (Herbicidal ratio of 90% or more (almost completely withered))	5 (Herbicidal ratio of 90% or more (almost completely withered))	5 (Herbicidal ratio of 90% or more (almost completely withered))	3 (Herbicidal ratio of 40% or higher and lower than 70%)
CC#Cc1cc(C)c(C2=C(O)CC(CC(C)=NOC)C2=O)c(C)c1 (mixture of isomers) [6-009]	4 (Herbicidal ratio of 70% or higher and lower than 90%)	2 (Herbicidal ratio of 20% or higher and lower than 40%)	5 (Herbicidal ratio of 90% or more (almost completely withered))	5 (Herbicidal ratio of 90% or more (almost completely withered))	5 (Herbicidal ratio of 90% or more (almost completely withered))	5 (Herbicidal ratio of 90% or more (almost completely withered))	5 (Herbicidal ratio of 90% or more (almost completely withered))	5 (Herbicidal ratio of 90% or more (almost completely withered))	3 (Herbicidal ratio of 40% or higher and lower than 70%)	0 (Herbicidal ratio of 5% or lower (almost no effect))		3 (Herbicidal ratio of 40% or higher and lower than 70%)	5 (Herbicidal ratio of 90% or more (almost completely withered))	5 (Herbicidal ratio of 90% or more (almost completely withered))	4 (Herbicidal ratio of 70% or higher and lower than 90%)
CCc1cc(Br)cc(C)c1C1=C(O)CC(C(C(=O)OC)C(C)=NOC)C1=O (centres unmarked) [6-002]	0 (Herbicidal ratio of 5% or lower (almost no effect))	0 (Herbicidal ratio of 5% or lower (almost no effect))	4 (Herbicidal ratio of 70% or higher and lower than 90%)	3 (Herbicidal ratio of 40% or higher and lower than 70%)	5 (Herbicidal ratio of 90% or more (almost completely withered))	5 (Herbicidal ratio of 90% or more (almost completely withered))	0 (Herbicidal ratio of 5% or lower (almost no effect))	0 (Herbicidal ratio of 5% or lower (almost no effect))	1 (Herbicidal ratio of 5% or higher and lower than 20%)	0 (Herbicidal ratio of 5% or lower (almost no effect))		3 (Herbicidal ratio of 40% or higher and lower than 70%)	0 (Herbicidal ratio of 5% or lower (almost no effect))	3 (Herbicidal ratio of 40% or higher and lower than 70%)	5 (Herbicidal ratio of 90% or more (almost completely withered))
CON=C(C)CC1CC(O)=C(c2c(C)cc(C(=O)OC)cc2C)C1=O (centres unmarked) [6-023]	0 (Herbicidal ratio of 5% or lower (almost no effect))		5 (Herbicidal ratio of 90% or more (almost completely withered))	0 (Herbicidal ratio of 5% or lower (almost no effect))	5 (Herbicidal ratio of 90% or more (almost completely withered))	5 (Herbicidal ratio of 90% or more (almost completely withered))	0 (Herbicidal ratio of 5% or lower (almost no effect))	0 (Herbicidal ratio of 5% or lower (almost no effect))	0 (Herbicidal ratio of 5% or lower (almost no effect))	0 (Herbicidal ratio of 5% or lower (almost no effect))	0 (Herbicidal ratio of 5% or lower (almost no effect))	4 (Herbicidal ratio of 70% or higher and lower than 90%)	3 (Herbicidal ratio of 40% or higher and lower than 70%)	3 (Herbicidal ratio of 40% or higher and lower than 70%)	5 (Herbicidal ratio of 90% or more (almost completely withered))
